Experimental findings from ChEMBL document CHEMBL1811857, “Targeting HIV entry through interaction with envelope glycoprotein 120 (gp120): synthesis and antiviral evaluation of 1,3,5-triazines with aromatic amino acids” (J Med Chem, 2011) are described below.

In general, pEC50 refers to −log10 of the EC50, conventionally taken in molar units. In general, pKd refers to the negative decadic logarithm of the Kd, by convention in mol/L.

One data set has as its system CCRF-CEM. Description: Cytotoxicity against human CEM cells after 4 days by Coulter counter analysis. Type of data set: cell-based. Particulars: 96 h, read-out: EC50 (the source's name).
The subject of data set [1] is Human immunodeficiency virus 2. Description: Antiviral activity against HIV2 ROD infected in human CEM cells assessed as inhibition of virus-induced cytopathicity after 4 days. Type of data set: functional, organism-based. Particulars: Human immunodeficiency virus 2, ISOLATE ROD, CCRF-CEM, 96 h. A general note: Damage to the host cells serves as the signal in cytopathic effect assays.

For data set [2], the system named is Human immunodeficiency virus 1. The experiment in a line: Antiviral activity against HIV1 3B infected in human CEM cells assessed as inhibition of virus-induced cytopathicity after 4 days. Type of data set: functional, organism-based. Particulars: Human immunodeficiency virus 1, 3B, CCRF-CEM, 96 h.
For data set [3], the system named is Human immunodeficiency virus 1. Description: Binding affinity to HIV1 3B recombinant gp-120 at 50 uM after 5 mins by surface plasmon resonance analysis.
Data set [4] in a line: Solubility of the compound at >10 uM. Type of data set: physicochemical.
The subject of data set [5] is Human immunodeficiency virus 1. Description: Binding affinity to HIV1 3B recombinant gp-120 at 12.5 uM after 5 mins by surface plasmon resonance analysis. In general terms: SPR reads the build-up and loss of mass on a sensor chip optically.
Data set [6] deals with Human immunodeficiency virus 1. Description: Antiviral activity against HIV1 3a-L infected in human PBMC cells assessed as inhibition of virus-induced cytopathicity after 4 days. Type of data set: functional, organism-based. Particulars: Human immunodeficiency virus 1, 3a-L, 96 h.
Data set [7] has as its system PBMC. The experiment in a line: Mitogenic activity in human PBMC after 3 days. It counts as functional, cell-based.
Data set [8] relates to PBMC. The experiment in a line: Induction of CD25 expression in human PBMC after 3 days by FACS analysis. Type of data set: functional, cell-based. For orientation: A flow cytometer gives signals particle by particle.
Data set [9] relates to PBMC. The experiment in a line: Induction of CD69 expression in human PBMC after 3 days by FACS analysis. Type of data set: functional, cell-based.
Data set [10] has as its system PBMC. Description: Induction of HLA-DR expression in human PBMC after 3 days by FACS analysis. Type of data set: functional, cell-based.
Data set [11] relates to PBMC. The experiment in a line: Cytotoxicity against human PBMC at 50 uM after 3 days. Particulars: 72 h. Type of data set: cell-based.
Data set [12] relates to Human immunodeficiency virus 1. The experiment in a line: Binding affinity to HIV1 3B recombinant gp-120 at 12.5 uM after 5 mins by surface plasmon resonance analysis in presence of […].
The nature of data set [13]: Binding affinity to HIV1 3B recombinant gp-120 after 5 mins using low density (792 RU) sensor chip by surface plasmon resonance analysis. Further details: species or system Human immunodeficiency virus 1.
Data set [14] is described as follows: Binding affinity to HIV1 ADA recombinant gp-120 after 5 mins using low density (792 RU) sensor chip by surface plasmon resonance analysis. Also noted: species or system Human immunodeficiency virus 1.
Data set [15] in a line: Binding affinity to HIV1 3B recombinant gp-120 after 5 mins using high density (10400 RU) sensor chip by surface plasmon resonance analysis. Also noted: species or system Human immunodeficiency virus 1.

pEC50, pKd: −log10 of the molar value. Active and inactive are the calls of the source. No cut-off for these calls is given here.

With `O=C(O)[C@H](Cc1ccc(O)cc1)Nc1nc(N[C@@H](Cc2ccc(O)cc2)C(=O)O)nc(N2CCN(c3nc(N[C@@H](Cc4ccc(O)cc4)C(=O)O)nc(N[C@@H](Cc4ccc(O)cc4)C(=O)O)n3)CC2)n1`, the CC50 in the data set with CCRF-CEM is > 250 µM. Besides, the pEC50 in data set [1] and in data set [2] was ≤ 3.60 each time.

With `O=C(O)[C@H](Cc1ccc(O)cc1)Nc1nc(NCCN(CCNc2nc(N[C@@H](Cc3ccc(O)cc3)C(=O)O)nc(N[C@H](Cc3ccc(O)cc3)C(=O)O)n2)CCNc2nc(N[C@@H](Cc3ccc(O)cc3)C(=O)O)nc(N[C@H](Cc3ccc(O)cc3)C(=O)O)n2)nc(N[C@H](Cc2ccc(O)cc2)C(=O)O)n1`, in the data set on CCRF-CEM, the CC50 was > 250 µM. For the same compound, the pEC50 in [1] and in data set [2] was ≤ 3.60 throughout.

For `O=C(O)[C@H](Cc1c[nH]c2ccccc12)Nc1nc(NCCN(CCNc2nc(N[C@@H](Cc3c[nH]c4ccccc34)C(=O)O)nc(N[C@H](Cc3c[nH]c4ccccc34)C(=O)O)n2)CCNc2nc(N[C@@H](Cc3c[nH]c4ccccc34)C(=O)O)nc(N[C@H](Cc3c[nH]c4ccccc34)C(=O)O)n2)nc(N[C@H](Cc2c[nH]c3ccccc23)C(=O)O)n1`, the CC50 with CCRF-CEM was > 250 µM. The pEC50 is 4.19 in [1] and 4.70 in data set [2].

Turning to `CN[C@@H]1[C@H](O[C@@H]2O[C@H](CO)[C@@H](O)[C@H](OS(=O)(=O)O)[C@H]2O)[C@@H](O)[C@H](O[C@H]2c3cc(C)c(C(=O)N[C@H](C)C(=O)O)c(O)c3-c3c(cc4c(c3O)C(=O)c3cc(OC)cc(O)c3C4=O)[C@@H]2O)O[C@@H]1C` [PRADIMICIN S], in the data set with CCRF-CEM, the CC50 is > 250 µM.

For the compound `CN[C@@H]1[C@H](O[C@@H]2OC[C@@H](O)[C@H](O)[C@H]2O)[C@@H](O)[C@H](O[C@H]2c3cc(C)c(C(=O)N[C@H](C)C(=O)O)c(O)c3-c3c(cc4c(c3O)C(=O)c3cc(OC)cc(O)c3C4=O)[C@@H]2O)O[C@@H]1C` [PRADIMICIN A], in the data set on CCRF-CEM, the CC50 was > 50 µM. Also, the pEC50 in [1] was 5.23; in data set [2], 5.28.

With `O=C(O)[C@H](Cc1ccc(O)cc1)Nc1nc(NCc2cccc(CNc3nc(N[C@@H](Cc4ccc(O)cc4)C(=O)O)nc(N[C@@H](Cc4ccc(O)cc4)C(=O)O)n3)c2)nc(N[C@@H](Cc2ccc(O)cc2)C(=O)O)n1`, the CC50 with CCRF-CEM was > 250 µM. Further, the pEC50 in data set [1] is 4.10; in data set [2] it was 3.83. In addition, the result in data set [3] was Active.

Consider `O=C(O)[C@H](Cc1ccccc1)Nc1nc(NCc2cccc(CNc3nc(N[C@@H](Cc4ccccc4)C(=O)O)nc(N[C@@H](Cc4ccccc4)C(=O)O)n3)c2)nc(N[C@@H](Cc2ccccc2)C(=O)O)n1`, for which, in data set [4], the solubility entry was “Insoluble”. Moreover, the CC50 with CCRF-CEM was > 10 µM. For the same compound, the pEC50 in data set [1] and in [2] was < 5.00 each time.

As to `O=C(O)[C@H](Cc1ccc(O)cc1)Nc1nc(NCc2ccccc2)nc(N[C@@H](Cc2ccc(O)cc2)C(=O)O)n1`, the result in [3] was inactive.

Consider `CCc1c(CNc2nc(N[C@@H](Cc3ccc(O)cc3)C(=O)O)nc(N[C@@H](Cc3c[nH]c4ccccc34)C(=O)O)n2)c(CC)c(CNc2nc(N[C@@H](Cc3ccc(O)cc3)C(=O)O)nc(N[C@@H](Cc3c[nH]c4ccccc34)C(=O)O)n2)c(CC)c1CNc1nc(N[C@@H](Cc2ccc(O)cc2)C(=O)O)nc(N[C@@H](Cc2c[nH]c3ccccc23)C(=O)O)n1`, for which, in the data set with CCRF-CEM, the CC50 is > 250 µM. For the same compound, the pEC50 is 4.62 in data set [1] and 4.59 in data set [2]. Besides, the outcome in [5] was Active.

For `O=C(O)[C@H](Cc1ccccc1)Nc1nc(N[C@@H](Cc2ccccc2)C(=O)O)nc(N2CCN(c3nc(N[C@@H](Cc4ccccc4)C(=O)O)nc(N[C@@H](Cc4ccccc4)C(=O)O)n3)CC2)n1`, in the data set with CCRF-CEM, the CC50 was > 250 µM. In addition, the results for the pEC50 in [1] and in data set [2] were 3.92 and 3.97, respectively.

Turning to `CCc1c(CNc2nc(N[C@@H](Cc3c[nH]c4ccccc34)C(=O)O)nc(N[C@H](Cc3c[nH]c4ccccc34)C(=O)O)n2)c(CC)c(CNc2nc(N[C@@H](Cc3c[nH]c4ccccc34)C(=O)O)nc(N[C@H](Cc3c[nH]c4ccccc34)C(=O)O)n2)c(CC)c1CNc1nc(N[C@@H](Cc2c[nH]c3ccccc23)C(=O)O)nc(N[C@H](Cc2c[nH]c3ccccc23)C(=O)O)n1`, the CC50 in the data set with CCRF-CEM was > 250 µM. Moreover, the pEC50 in data set [1] is 4.66; in [2] it was 4.72. For the same compound, in data set [5], the result was Active.

As for `CCc1c(CNc2nc(NCCc3c[nH]c4ccccc34)nc(N[C@@H](Cc3c[nH]c4ccccc34)C(=O)O)n2)c(CC)c(CNc2nc(NCCc3c[nH]c4ccccc34)nc(N[C@@H](Cc3c[nH]c4ccccc34)C(=O)O)n2)c(CC)c1CNc1nc(NCCc2c[nH]c3ccccc23)nc(N[C@@H](Cc2c[nH]c3ccccc23)C(=O)O)n1`, the solubility entry in [4] was “Insoluble”. Moreover, the CC50 with CCRF-CEM is > 10 µM. In addition, the pEC50 in data set [1] and in data set [2] was < 5.00 throughout. In [5], the outcome was Active.

`CCc1c(CNc2nc(N[C@@H](Cc3ccc(O)cc3)C(=O)O)nc(N[C@@H](Cc3ccc(O)cc3)C(=O)O)n2)c(CC)c(CNc2nc(N[C@@H](Cc3ccc(O)cc3)C(=O)O)nc(N[C@@H](Cc3ccc(O)cc3)C(=O)O)n2)c(CC)c1CNc1nc(N[C@@H](Cc2ccc(O)cc2)C(=O)O)nc(N[C@@H](Cc2ccc(O)cc2)C(=O)O)n1`: the results for the pEC50 in data set [6], in data set [1] and in data set [2] were 4.70, 4.66 and 4.66, respectively. For the same compound, the CC50 with CCRF-CEM was > 250 µM. Further, the outcome in the data set on PBMC [7], in the data set on PBMC [8], with PBMC [9] and in the data set on PBMC [10] was inactive. Besides, the Activity result with PBMC [11] is listed as “Non-toxic”. Moreover, the result in data set [5], in data set [3] and in data set [12] was Active. For the same compound, the pKd in data set [13] is 5.71; in [14], 5.77; in [15], 5.58.

`CCc1c(CNc2nc(N[C@@H](CC(=O)O)C(=O)O)nc(N[C@@H](Cc3c[nH]c4ccccc34)C(=O)O)n2)c(CC)c(CNc2nc(N[C@@H](CC(=O)O)C(=O)O)nc(N[C@@H](Cc3c[nH]c4ccccc34)C(=O)O)n2)c(CC)c1CNc1nc(N[C@@H](CC(=O)O)C(=O)O)nc(N[C@@H](Cc2c[nH]c3ccccc23)C(=O)O)n1`: the CC50 in the data set on CCRF-CEM was > 250 µM. For the same compound, the pEC50 is 4.48 in data set [1] and 4.74 in data set [2]. Moreover, the outcome in data set [5] was Active.

Consider `O=C(O)[C@H](Cc1ccc(O)cc1)Nc1nc(NCCOCCOCCNc2nc(N[C@@H](Cc3ccc(O)cc3)C(=O)O)nc(N[C@H](Cc3ccc(O)cc3)C(=O)O)n2)nc(N[C@@H](Cc2ccc(O)cc2)C(=O)O)n1`, for which the CC50 with CCRF-CEM is > 250 µM. For the same compound, the pEC50 in [1] and in data set [2] was < 3.60 each time.

Regarding `O=C(O)C[C@H](Nc1nc(NCCN(CCNc2nc(N[C@@H](CC(=O)O)C(=O)O)nc(N[C@@H](Cc3c[nH]c4ccccc34)C(=O)O)n2)CCNc2nc(N[C@@H](Cc3c[nH]c4ccccc34)C(=O)O)nc(N[C@H](CC(=O)O)C(=O)O)n2)nc(N[C@@H](Cc2c[nH]c3ccccc23)C(=O)O)n1)C(=O)O`, the CC50 in the data set with CCRF-CEM is > 250 µM. The pEC50 in data set [1] is < 3.60; in data set [2] it was 3.67.

With `O=C(O)[C@H](Cc1c[nH]c2ccccc12)Nc1nc(NCCOCCOCCNc2nc(N[C@@H](Cc3c[nH]c4ccccc34)C(=O)O)nc(N[C@H](Cc3c[nH]c4ccccc34)C(=O)O)n2)nc(N[C@@H](Cc2c[nH]c3ccccc23)C(=O)O)n1`, the CC50 with CCRF-CEM was > 250 µM. The values for the pEC50 in [1] and in data set [2] were 3.92 and 3.95, respectively.

Turning to `O=C(O)[C@H](Cc1ccccc1)Nc1nc(NCCN(CCNc2nc(N[C@@H](Cc3ccccc3)C(=O)O)nc(N[C@H](Cc3ccccc3)C(=O)O)n2)CCNc2nc(N[C@@H](Cc3ccccc3)C(=O)O)nc(N[C@H](Cc3ccccc3)C(=O)O)n2)nc(N[C@H](Cc2ccccc2)C(=O)O)n1`, the CC50 in the data set on CCRF-CEM is > 250 µM. The pEC50 was 3.67 in [1] and 4.19 in data set [2].

As to `O=C(O)[C@H](Cc1c[nH]c2ccccc12)Nc1nc(NCc2ccccc2)nc(N[C@@H](Cc2c[nH]c3ccccc23)C(=O)O)n1`, the outcome in data set [3] was inactive.

For the compound `O=C(O)[C@H](Cc1ccccc1)Nc1nc(NCCOCCOCCNc2nc(N[C@@H](Cc3ccccc3)C(=O)O)nc(N[C@H](Cc3ccccc3)C(=O)O)n2)nc(N[C@@H](Cc2ccccc2)C(=O)O)n1`, in the data set with CCRF-CEM, the CC50 was > 250 µM. The pEC50 in [1] and in data set [2] was ≤ 3.60 throughout.
